Assay results: patent US5015659A, “Thienylacetic acid derivatives, process for the preparation thereof, the use thereof, and pharmaceuticals containing these and the preparation thereof” (Cassella Aktiengesellschaft, priority 1989, dated 1991)
Counter-ions that a name gives are not always drawn.

Columns and labels:
[1] = tested on: Ischaemia-induced amnesia in the Mongolian gerbil; assay: Ischaemia-induced amnesia, passive-avoidance learning after brief bilateral cerebral ischaemia; type: in vivo; conditions: for Ischaemia-induced learning impairment, % reversal of learning impairment: immediately after the end of ischaemia; for ED50: Meriones unguiculatus, ip, i.p. immediately after the end of ischaemia (3-5 min), read-out: Dose which elicits a half-maximum (about 50%) antagonism of the learning impairment
Description: Brief bilateral cerebral ischaemia (3-5 min) in the gerbil leads to a prolonged learning impairment in passive-avoidance learning. The learning impairment can be antagonized if the animals are treated intraperitoneally with the compounds of the general formula I immediately after the end of ischaemia. The table which follows indicates the dosages which elicit a half-maximum (about 50%) antagonism of the learning impairment. The compounds according to the invention show a pronounced superiority to the compounds of the state of the art.

[2] = tested on: Scopolamine-induced amnesia in the mouse; assay: Scopolamine-induced amnesia, passive-avoidance learning test; type: in vivo; conditions: scopolamine 3 mg/kg i.p.; for Scopolamine amnesia, % reversal of amnesia: 30 mg/kg oral pretreatment
Description: 1) Scopolamine-induced amnesia in the mouse
Injection of a scopolamine dose of 3 mg/kg i.p. leads to an amnesia in a passive-avoidance learning test.

glycine receptor = assay: Receptor-binding studies in vitro, rat cortex synaptosomes; conditions: for Kd: read-out: Binding to glycine receptors in the brain, Kd

COc1ccc(C(=O)N2CCCC2=O)cc1 [Aniracetam, reference compound]
Ischaemia-induced learning impairment, % reversal of learning impairment ([1]; 30.00 mg/kg ip): 45%
ED50 [1]: 30 mg/kg

NC(=O)CNC(C(=O)O)c1cccs1 (stereo not shown) [Example 5, 2-Thienyl-N-aminocarbonylmethylaminoacetic acid]
Scopolamine amnesia, % reversal of amnesia [2]: 56%
Ischaemia-induced learning impairment, % reversal of learning impairment ([1]; 1.00 mg/kg ip): 51%
ED50 [1]: 1 mg/kg

NC(=O)C(NCC(=O)O)c1cccs1 (stereo not shown) [Example 8, 2-Thienyl-N-hydroxycarbonylmethylaminoacetamide hydrochloride]
Scopolamine amnesia, % reversal of amnesia [2]: 71%
Ischaemia-induced learning impairment, % reversal of learning impairment ([1]; 0.03 mg/kg ip): 58%
ED50 [1]: 0.03 mg/kg

Cl.NCC(=O)NC(C(=O)O)c1cccs1 (stereo not shown) [Example 9, 2-Thienyl-N-aminoacetylaminoacetic acid hydrochloride]
Ischaemia-induced learning impairment, % reversal of learning impairment ([1]; 0.10 mg/kg ip): 54%
ED50 [1]: 0.1 mg/kg
Kd (glycine receptor): 1800 nM

NC(C(=O)NCC(=O)O)c1cccs1 (stereo not shown) [Example 11, N-(2-Thienylaminoacetyl)glycine]
Ischaemia-induced learning impairment, % reversal of learning impairment ([1]; 1.00 mg/kg ip): 54%
ED50 [1]: 1 mg/kg
Kd (glycine receptor): 1800 nM

NC(=O)CN1CC(O)CC1=O (stereo not shown) [Oxiracetam, reference compound]
Ischaemia-induced learning impairment, % reversal of learning impairment ([1]; 100.00 mg/kg ip): 46%
ED50 [1]: 100 mg/kg

NC(=O)CN1CCCC1=O [Piracetam, reference compound]
Scopolamine amnesia, % reversal of amnesia [2]: 18%
antagonism of scopolamine-induced amnesia (in words) ([2]; oral pretreatment): only marginal activity
Binding to glycine receptors in the brain (in words) (glycine receptor): No specific binding
